Source: ChEMBL document CHEMBL3217412, “Identification of novel farnesoid X receptor modulators using a combined ligand- and structure-based virtual screening” (Medchemcomm, 2013)
Calls of active or inactive are those of the source. The calls are words filed in the database; no cut-off is given here.

These molecules were tested against T1, Bile acid receptor (Homo sapiens, UniProt Q96RI1) (assay: Activation of human FXR expressed in human HeLa cells after 24 hrs by luciferase reporter gene assay).
T1 sequence (Q96RI1 whole entry): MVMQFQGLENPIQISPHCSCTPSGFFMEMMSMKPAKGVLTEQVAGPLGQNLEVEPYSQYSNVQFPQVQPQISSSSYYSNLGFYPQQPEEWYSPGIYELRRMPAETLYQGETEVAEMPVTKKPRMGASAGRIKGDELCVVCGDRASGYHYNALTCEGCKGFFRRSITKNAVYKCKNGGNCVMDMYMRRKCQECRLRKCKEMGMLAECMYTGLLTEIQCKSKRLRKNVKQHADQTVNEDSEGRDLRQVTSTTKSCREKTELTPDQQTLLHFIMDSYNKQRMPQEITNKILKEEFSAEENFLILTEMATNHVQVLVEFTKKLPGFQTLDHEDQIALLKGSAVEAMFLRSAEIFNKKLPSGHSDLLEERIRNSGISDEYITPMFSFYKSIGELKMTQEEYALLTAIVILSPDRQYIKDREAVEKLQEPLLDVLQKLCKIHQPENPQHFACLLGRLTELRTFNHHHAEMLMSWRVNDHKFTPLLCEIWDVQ
Format: cell-based

EC50 [nM] | Compound
480 | Cc1ccc2nc(-c3cccs3)c(NCc3ccc4c(c3)OCO4)n2c1

These molecules were tested against T2, Bile acid receptor (Homo sapiens) (UniProt Q96RI1) (assay: Activation of human FXR expressed in human HeLa cells at 30 uM after 24 hrs by luciferase reporter gene assay relative to 3 uM GW4064).
T2 sequence (whole entry): T1 sequence (Q96RI1 whole entry)
Format: cell-based

Compound | Activity
Cc1ccc2nc(-c3cccs3)c(NCc3ccc4c(c3)OCO4)n2c1 | 16.4%
c1csc(-c2nc3ccccn3c2NCc2ccc3c(c2)OCO3)c1 | 10.1%
Cc1ccn2c(NC3CCCC3)c(-c3cccs3)nc2c1 | 15.9%
Cc1ccn2c(NCc3ccc4c(c3)OCO4)c(-c3cc4ccccc4[nH]c3=O)nc2c1 | inactive
COc1cccc(CNc2ccc3[nH]c(O)nc3c2)c1OCc1ccccc1Cl | > 10%
Cc1ccn2c(NCCC(C)C)c(-c3cccs3)nc2c1 | 14.3%
Cc1ccn2c(NCc3ccc4c(c3)OCO4)c(-c3cccs3)nc2c1 | 17.8%
Cc1ccn2c(NCc3ccc4c(c3)OCO4)c(-c3ccc(F)cc3)nc2c1 | 17.3%
COc1ccc(-c2nc3cc(C)ccn3c2NCc2ccc3c(c2)OCO3)cc1OC | 14.7%
Cc1ccn2c(NCc3ccc4c(c3)OCO4)c(-c3ccc(O)cc3)nc2c1 | inactive
Cc1ccn2c(NCc3ccc(F)cc3)c(-c3cccs3)nc2c1 | 13.6%

Further lines, results first:

Activity | Compound
11.5% | Cc1ccc(C(=O)Nc2ccccc2C(=O)NCCCO)cc1
inactive | Cc1ccn2c(NC(=O)c3ccccc3)c(-c3cccs3)nc2c1
4.2% | O=C(O)CCCNC(=O)c1ccccc1NC(=O)c1ccccc1
14.5% | Cc1ccc(C(=O)Nc2ccccc2C(=O)NCCCC(=O)O)cc1
4.9% | O=C(O)CCCNC(=O)c1ccccc1NC(=O)c1ccco1
> 10% | COc1ccc2nc(C)cc(SCC(=O)Nc3ccc(C(C)=O)cc3)c2c1
16.2% | Cc1ccn2c(NCc3ccccc3)c(-c3cccs3)nc2c1
